Like-named read-outs stand apart in the source and are kept apart here.
What was measured:
Rat Liver [1] = settings: ref ToxRefDB, cited from earlier work
Rat Liver [2] = settings: ref ToxRefDB, cited from earlier work; remark: listed apart in the source
Rat Liver [3] = settings: ref ToxRefDB, cited from earlier work; remark: listed apart in the source
PXR (NR1I2) = target: T1, PXR (NR1I2) (Homo sapiens, UniProt O75469); assay: ATG_PXRE_CIS: Factorial reporter gene assay (HepG2); type: cell-based; design: endogenous in cells; host or cells: HepG2
T1 sequence (O75469 1-434): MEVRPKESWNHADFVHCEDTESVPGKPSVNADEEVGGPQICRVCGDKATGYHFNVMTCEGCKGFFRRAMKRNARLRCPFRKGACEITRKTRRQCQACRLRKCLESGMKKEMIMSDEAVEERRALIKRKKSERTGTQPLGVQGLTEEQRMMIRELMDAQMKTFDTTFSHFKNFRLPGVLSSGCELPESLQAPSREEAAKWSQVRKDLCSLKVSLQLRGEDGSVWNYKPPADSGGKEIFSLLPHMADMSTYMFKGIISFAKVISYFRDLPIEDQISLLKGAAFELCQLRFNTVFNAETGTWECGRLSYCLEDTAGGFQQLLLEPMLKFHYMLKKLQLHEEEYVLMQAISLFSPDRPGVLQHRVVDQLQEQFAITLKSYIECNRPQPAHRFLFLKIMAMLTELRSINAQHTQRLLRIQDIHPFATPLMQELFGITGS
Protocol: A multiple reporter transcription unit (MRTU) library consisting of 48 transcription factor binding sites was transfected into the HepG2 human liver hepatoma cell line. In addition to the cis-acting reporter genes (CIS), a modification of the approach was used to generate a trans-system (TRANS) with a mammalian one-hybrid assay consisting of an additional 25 MRTU library reporting the activity of nuclear receptor super-family members. […] These assays were performed by Attagene Inc. (Morrisville NC) under contract to EPA.
In addition to the cis-acting reporter genes (CIS), a modification of the approach was used to generate a trans-system (TRANS) with a mammalian one-hybrid assay consisting of an additional 25 MRTU library reporting the activity of nuclear receptor super-family members. […] Chemicals were then tested in the CIS and TRANS assays at seven concentrations starting at the MTC and followed by three-fold serial dilutions. These assays were performed by Attagene Inc. (Morrisville NC) under contract to EPA. Detailed description of the methods, data and analysis methods for this dataset will be presented in a separate publication.

Mouse Liver = settings: liver, ref ToxRefDB, cited from earlier work
CYP2B6 = assay: CLZD_CYP2B6: Change in expression of CYP2B6 (primary human hepatocytes); type: cell-based; settings: 24 hr
Protocol: This is a collection of multiplexed gene expression assays focused on Phase I and II xenobiotic metabolizing enzymes and transporters. Human primary cell cultures were treated with chemicals at 5 concentrations (0.004-40 [drawing 42] M) for 6, 24 and 48 hr. Concentration- and time-response profiles of chemicals were measured by the expression of key nuclear receptor target genes, activities of CYP1A enzymes (EROD), and cell morphology. Fourteen gene targets were monitored by quantitative nuclease protection assay including: six representative cytochrome P-450 genes, four hepatic transporters, three Phase II conjugating enzymes, and one endogenous metabolism gene involved in cholesterol synthesis. The target genes associated with nuclear receptor pathways are as follows: [drawing 43] and [drawing 44] with [drawing 45]; [drawing 46] , [drawing 47] , [drawing 48] , [drawing 49] , [drawing 50] and [drawing 51] with [drawing 52]; [drawing 53] , [drawing 54] , [drawing 55] and [drawing 56] with [drawing 57]; [drawing 58] with [drawing 59]; and [drawing 60] with [drawing 61] . Assays were run in primary human hepatocyte cultures by CellzDirect Invitrogen Inc. (Durham, NC), in collaboration with EPA.
Multiplexed Gene Expression in Human Primary Hepatocytes: This is a collection of multiplexed gene expression assays focused on Phase I and II metabolic enzymes and transporters. […] Fourteen gene targets were monitored by quantitative nuclease protection assay: six representative cytochrome P450 genes, four hepatic transporters, three Phase II conjugating enzymes, and one endogenous metabolism gene involved in cholesterol synthesis. Cells were exposed at 5 concentrations (0.004-40 µM) for 6, 24 or 48 hr. Gene targets are sentinels for five nuclear receptor signaling pathways: AhR, CAR, PXR, FXR, and PPARα. All gene are associated with nuclear receptor pathways: CYP1A1 and CYP1A2 with AHR; ABCB1, ABCG2, CYP2B6, CYP2C9, CYP2C19 and UGT1A1 with CAR; CYP3A4, GSTA2, SLCO1B1 and SULT2A1 with PXR; HMGCS2 with PPARA; and ABCB11 with FXR. […] Detailed description of the methods, data and analysis methods for this dataset will be presented in a separate publication.

[4] = rat chronic study, liver, coded 6 / 0, code not explained in table
[5] = rat chronic study, liver, any lesion, coded 6 / 0, code not explained in the table
[6] = rat chronic study, liver, preneoplastic lesion, coded 6 / 0, code not explained in the table
[7] = rat chronic study, liver, neoplastic lesion, coded 6 / 0, code not explained in the table
[8] = mouse chronic study, any lesion, coded 6 / Inf, code not explained in the table
[9] = mouse chronic study, coded 6 / Inf, code not explained in table

Row | SMILES | CHR_Rat_Liver_1_AnyLesion (Rat Liver [1]; [4]) | CHR_Rat_Liver_2_PreneoplasticLesion (Rat Liver [2]; [4]) | CHR_Rat_Liver_3_NeoplasticLesion (Rat Liver [3]; [4]) | CHR_Rat_Liver_1_AnyLesion (Rat Liver [1]; [5]) | CHR_Rat_Liver_2_PreneoplasticLesion (Rat Liver [2]; [6]) | CHR_Rat_Liver_3_NeoplasticLesion (Rat Liver [3]; [7]) | also measured
1 | COC(=O)c1ccccc1S(=O)(=O)NC(=O)N(C)c1nc(C)nc(OC)n1 [chemical 308] | 0 | 0 | 0 |  |  |  | 
2 | Oc1cc(Cl)ccc1Oc1ccc(Cl)cc1Cl [chemical 312] | 6 | 0 | 0 |  |  |  | 
3 | CCCN(CCC)c1c([N+](=O)[O-])cc(C(F)(F)F)cc1[N+](=O)[O-] [chemical 316] | 0 | 0 | 0 |  |  |  | 
4 | CNC(=O)N(C)c1nnc(C(C)(C)C)s1 [r293] |  |  |  |  |  |  | ATG_PXRE_CIS (PXR (NR1I2); HepG2 reporter): 4.357
5 | O=C(O)c1c(Cl)ccc2cc(Cl)cnc12 [r276] |  |  |  |  |  |  | CHR_Rat_Liver_1_AnyLesion (Rat Liver [1]; chronic study, rat liver): 0; CHR_Rat_Liver_2_PreneoplasticLesion (Rat Liver [2]; chronic study, rat liver): 0; CHR_Rat_Liver_3_NeoplasticLesion (Rat Liver [3]; chronic study, rat liver): 0
6 | CCON=C(CC)C1=C(O)CC(c2c(C)cc(C)cc2C)CC1=O (stereo not shown) [chemical 303] | 6 | 6 | 0 |  |  |  | 
7 | CCNc1nc(Cl)nc(NC(C)C)n1 [Dataset S3 row 21] |  |  |  | 0 | 0 | 0 | 
8 | COc1cc(OC)nc(NC(=O)[N-]S(=O)(=O)c2ncccc2OCC(F)(F)F)n1.[Na+] [chemical 314] | 0 | 0 | 0 |  |  |  | 
9 | CCS(=O)(=O)c1cccnc1S(=O)(=O)NC(=O)Nc1nc(OC)cc(OC)n1 [r281] |  |  |  |  |  |  | CHR_Rat_Liver_1_AnyLesion (Rat Liver [1]; chronic study, rat liver): 6; CHR_Rat_Liver_2_PreneoplasticLesion (Rat Liver [2]; chronic study, rat liver): 6; CHR_Rat_Liver_3_NeoplasticLesion (Rat Liver [3]; chronic study, rat liver): 0
10 | O=C(O)CCCOc1ccc(Cl)cc1Cl [Dataset S3 row 3] |  |  |  | 6 | 0 | 0 | CHR_Mouse_Liver_1_AnyLesion (Mouse Liver; [8]): 6
11 | CCOCN(C(=O)CCl)c1c(C)cccc1CC [Dataset S3 row 12] |  |  |  | 6 | 6 | 6 | 
12 | CN(C)C(=S)SSC(=S)N(C)C [chemical 302] | 6 | 6 | 0 |  |  |  | 
13 | CNC(=O)Oc1cccc2c1OC(C)(C)O2 [Dataset S3 row 25] |  |  |  | 0 | 0 | 0 | 
14 | c1ccc2[nH]c(-c3cscn3)nc2c1 [chemical 294] | 6 | 0 | 0 |  |  |  | 
15 | N#C/N=C1\SCCN1Cc1ccc(Cl)nc1 [chemical 295] | 6 | 0 | 0 |  |  |  | CHR_Mouse_Liver_1_AnyLesion (Mouse Liver; [9]): 6
16 | CC1(C)CCC(=Cc2ccc(Cl)cc2)C1(O)Cn1cncn1 (stereo not shown) [chemical 318] | 6 | 0 | 0 |  |  |  | CHR_Mouse_Liver_1_AnyLesion (Mouse Liver; [9]): 6
17 | O=C(O)COc1ccc(Cl)cc1Cl [Dataset S3 row 2] |  |  |  | 6 | 0 | 0 | 
18 | Clc1nc(Cl)nc(Nc2ccccc2Cl)n1 [Dataset S3 row 19] |  |  |  | 0 | 0 | 0 | 

Row | SMILES | CHR_Rat_Liver_1_AnyLesion (Rat Liver [1]; [4]) | CHR_Rat_Liver_2_PreneoplasticLesion (Rat Liver [2]; [4]) | CHR_Rat_Liver_3_NeoplasticLesion (Rat Liver [3]; [4]) | CHR_Rat_Liver_1_AnyLesion (Rat Liver [1]; [5]) | CHR_Rat_Liver_2_PreneoplasticLesion (Rat Liver [2]; [6]) | CHR_Rat_Liver_3_NeoplasticLesion (Rat Liver [3]; [7]) | also measured
19 | CSC(=O)c1cccc2nnsc12 [Dataset S3 row 13] |  |  |  | 6 | 0 | 0 | CHR_Mouse_Liver_1_AnyLesion (Mouse Liver; [8]): 6
20 | CCc1cccc(CC)c1N(COC)C(=O)CCl [Dataset S3 row 15] |  |  |  | 6 | 0 | 0 | 
21 | CNC(=O)ON=C(SC)C(=O)N(C)C [r231] |  |  |  |  |  |  | CHR_Rat_Liver_1_AnyLesion (Rat Liver [1]; rat, chronic study): 0; ATG_PXRE_CIS (PXR (NR1I2); HepG2): 4.481; CHR_Rat_Liver_2_PreneoplasticLesion (Rat Liver [2]; rat, chronic study): 0; CHR_Rat_Liver_3_NeoplasticLesion (Rat Liver [3]; rat, chronic study): 0
22 | COC(=O)NS(=O)(=O)c1ccc(N)cc1 [Dataset S3 row 20] |  |  |  | 0 | 0 | 0 | CHR_Mouse_Liver_1_AnyLesion (Mouse Liver; [8]): 6
23 | COC(=O)c1ccc(CNS(C)(=O)=O)cc1S(=O)(=O)NC(=O)Nc1nc(OC)cc(OC)n1 [row 194] |  |  |  |  |  |  | CHR_Rat_Liver_1_AnyLesion (Rat Liver [1]; chronic rat study, liver): 0; CHR_Rat_Liver_2_PreneoplasticLesion (Rat Liver [2]; chronic rat study, liver): 0; CHR_Rat_Liver_3_NeoplasticLesion (Rat Liver [3]; chronic rat study, liver): 0; CHR_Mouse_Liver_1_AnyLesion (Mouse Liver; chronic mouse study): 6
24 | CCNc1nc(NC(C)C)nc(SC)n1 [Dataset S3 row 17] |  |  |  | 6 | 6 | 6 | 
25 | CSc1nnc(C(C)(C)C)c(=O)n1N [row 209] |  |  |  |  |  |  | CLZD_CYP2B6_24 (CYP2B6): 5.115; CHR_Rat_Liver_1_AnyLesion (Rat Liver [1]; chronic rat study, liver): 0; CHR_Rat_Liver_2_PreneoplasticLesion (Rat Liver [2]; chronic rat study, liver): 0; CHR_Rat_Liver_3_NeoplasticLesion (Rat Liver [3]; chronic rat study, liver): 0
26 | COC=C(C(=O)OC)c1ccccc1Oc1cc(Oc2ccccc2C#N)ncn1 [Dataset S3 row 24] |  |  |  | 6 | 6 | 0 | 
27 | CNC(=O)ON=CC(C)(C)SC [Dataset S3 row 16] |  |  |  | 0 | 0 | 0 | 
28 | CCC(=O)Nc1ccc(Cl)c(Cl)c1 [r258] |  |  |  |  |  |  | CHR_Rat_Liver_1_AnyLesion (Rat Liver [1]; rat, chronic study): 6; ATG_PXRE_CIS (PXR (NR1I2); HepG2): 4.337; CHR_Rat_Liver_2_PreneoplasticLesion (Rat Liver [2]; rat, chronic study): 6; CHR_Rat_Liver_3_NeoplasticLesion (Rat Liver [3]; rat, chronic study): 0
29 | C/C(=N\C#N)N(C)Cc1ccc(Cl)nc1 [Dataset S3 row 11] |  |  |  | 6 | 0 | 0 | CHR_Mouse_Liver_1_AnyLesion (Mouse Liver; [8]): 6
30 | CCC(C)(NC(=O)c1cc(Cl)c(C)c(Cl)c1)C(=O)CCl (stereo not shown) [chemical 320] | 0 | 0 | 0 |  |  |  | 
31 | CO/N=C(/C(=O)OC)c1ccccc1CON=C(C)c1cccc(C(F)(F)F)c1 [chemical 313] | 0 | 0 | 0 |  |  |  | CHR_Mouse_Liver_1_AnyLesion (Mouse Liver; [9]): 6
32 | COCCO [row 203] |  |  |  |  |  |  | ATG_PXRE_CIS (PXR (NR1I2); HepG2): 4.602
33 | FC(F)C(F)(F)OCC(Cn1cncn1)c1ccc(Cl)cc1Cl (stereo not shown) [chemical 292] | 6 | 6 | 0 |  |  |  | 
34 | CCCOC(=O)NCCCN(C)C.Cl [r257] |  |  |  |  |  |  | CHR_Rat_Liver_1_AnyLesion (Rat Liver [1]; rat, chronic study): 0; CHR_Rat_Liver_2_PreneoplasticLesion (Rat Liver [2]; rat, chronic study): 0; CHR_Rat_Liver_3_NeoplasticLesion (Rat Liver [3]; rat, chronic study): 0
35 | CNC(=O)ON=C(C)SC [row 200] |  |  |  |  |  |  | CHR_Rat_Liver_1_AnyLesion (Rat Liver [1]; chronic rat study, liver): 0; CHR_Rat_Liver_2_PreneoplasticLesion (Rat Liver [2]; chronic rat study, liver): 0; CHR_Rat_Liver_3_NeoplasticLesion (Rat Liver [3]; chronic rat study, liver): 0

From publication PMC3038857, “Using Nuclear Receptor Activity to Stratify Hepatocarcinogens” (PLoS ONE, 2011)
